Data taken from patent US5696108A, “Protein kinase C inhibitors” (Eli Lilly and Company, priority 1996, dated 1997).
pIC50: −log10 of the molar value. Counter-ions that a name gives are not always drawn.

What was measured:
Conditions in all cases: Table 1
[1] = biological target: PKC-α (Homo sapiens, UniProt P17252); experiment: PKC Enzyme Assay, alpha isozyme; assay type: biochemical
Procedure: (§1) PKC enzymes=alpha, beta I, beta II, gamma, delta, epsilon, eta and zeta.
(§2) Assay components in a total volume of 250 μL are as follows:
(§3) For all the enzymes either histone type HL (Worthington) or myelin basic protein is used as substrate. The assay is started by addition of protein kinase C enzyme incubated at 30° C. for 10 minutes and stopped by adding 0.5 mL of cold trichloroacetic acid (Amresco) followed by 100 μL of 1 mg/mL bovine serum albumin (Sigma, St. Louis, Mo.). The precipitate is collected by vacuum filtration on glass fiber filters employing a TOMTEC™ filtration system and quantified by counting in a beta scintillation counter.

[2] = biological target: PKC-β2 (Homo sapiens, UniProt P05771); experiment: PKC Enzyme Assay, beta-2 isozyme; assay type: biochemical
PKC-β2, sequence (P05771 1-673 isoform P05771-2): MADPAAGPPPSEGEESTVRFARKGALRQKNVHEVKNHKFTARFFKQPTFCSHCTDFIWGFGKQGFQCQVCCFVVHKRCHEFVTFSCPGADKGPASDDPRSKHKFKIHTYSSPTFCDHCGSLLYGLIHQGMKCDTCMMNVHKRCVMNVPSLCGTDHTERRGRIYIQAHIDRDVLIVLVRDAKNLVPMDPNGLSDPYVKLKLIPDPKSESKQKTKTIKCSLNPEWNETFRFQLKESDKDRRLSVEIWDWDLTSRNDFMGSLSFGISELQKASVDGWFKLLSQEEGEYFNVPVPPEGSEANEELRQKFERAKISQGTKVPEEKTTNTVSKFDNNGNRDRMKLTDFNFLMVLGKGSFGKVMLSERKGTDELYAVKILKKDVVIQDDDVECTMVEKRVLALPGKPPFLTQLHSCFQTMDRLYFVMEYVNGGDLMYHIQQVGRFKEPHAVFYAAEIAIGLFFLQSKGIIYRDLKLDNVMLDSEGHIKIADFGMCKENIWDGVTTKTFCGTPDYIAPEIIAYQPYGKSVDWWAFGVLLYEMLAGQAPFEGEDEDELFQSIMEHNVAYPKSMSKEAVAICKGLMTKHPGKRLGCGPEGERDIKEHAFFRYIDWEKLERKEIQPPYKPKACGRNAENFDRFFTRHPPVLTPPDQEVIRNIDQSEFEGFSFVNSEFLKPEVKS
Procedure: as §1, §2, §3

[3] = biological target: PKC-β1 (Homo sapiens, UniProt P05771); experiment: PKC Enzyme Assay, beta-1 isozyme; assay type: biochemical
PKC-β1, sequence (P05771 whole entry): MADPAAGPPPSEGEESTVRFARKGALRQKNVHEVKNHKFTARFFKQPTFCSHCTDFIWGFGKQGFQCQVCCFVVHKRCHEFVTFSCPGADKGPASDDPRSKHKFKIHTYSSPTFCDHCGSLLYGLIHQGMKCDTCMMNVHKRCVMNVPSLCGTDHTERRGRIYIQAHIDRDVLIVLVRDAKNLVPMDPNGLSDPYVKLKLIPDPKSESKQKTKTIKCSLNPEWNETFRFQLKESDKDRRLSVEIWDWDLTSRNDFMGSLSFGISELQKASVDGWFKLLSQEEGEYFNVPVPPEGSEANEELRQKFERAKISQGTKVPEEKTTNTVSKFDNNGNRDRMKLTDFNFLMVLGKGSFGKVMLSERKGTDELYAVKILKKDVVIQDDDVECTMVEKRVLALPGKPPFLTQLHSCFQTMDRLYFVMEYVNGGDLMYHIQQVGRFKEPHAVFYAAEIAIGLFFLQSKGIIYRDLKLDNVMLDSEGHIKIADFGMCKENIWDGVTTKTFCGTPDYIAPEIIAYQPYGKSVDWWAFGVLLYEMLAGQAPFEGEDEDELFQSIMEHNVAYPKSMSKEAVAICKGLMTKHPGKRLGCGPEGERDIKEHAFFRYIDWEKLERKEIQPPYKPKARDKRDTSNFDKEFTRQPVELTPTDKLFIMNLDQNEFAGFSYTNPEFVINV
Procedure: as §1, §2, §3

[4] = biological target: calcium calmodulin dependent protein kinase; experiment: Calcium Calmodulin Dependent Protein Kinase Assay (CAM); assay type: biochemical, rat
Procedure: Calcium Calmodulin Dependent Protein Kinase Assay (CAM)
The reaction is initiated by the addition of calcium calmodulin dependent protein kinase (isolated from rat brain homogenate), incubated at room temperature for 10 minutes and stopped by adding 0.5 mL ice cold trichloroacetic acid (Amresco) followed by 100 μL of 1 mg/mL bovine serum albumin (Sigma, St. Louis, Mo.). The precipitate is collected by vacuum filtration on glass fiber filters and quantified by counting in a beta scintillation counter.
25 μL calmodulin (250 μg/mL)
10 μL DMSO or DMSO/inhibitor

[5] = biological target: T1, cAMP-dependent kinase catalytic subunit (Bos taurus, UniProt P00517); experiment: cAMP-Dependent protein Kinase Catalytic Subunit Assay; assay type: biochemical, bovine
T1 construct: purchased Sigma, St. Louis, Mo; host or cells: bovine heart
Procedure: cAMP-Dependent protein Kinase Catalytic Subunit Assay (PEA) The Assay components are in a total volume of 250 μL: 20 mM HEPES (Sigma, St. Louis, Mo.) buffer pH 7.5, 200 μg/mL histone type HL (Worthington), 10 mM magnesium chloride (Sigma, St. […] The reaction is initiated by addition of bovine heart cAMP-dependent kinase catalytic subunit (Sigma, St. Louis, Mo.), incubated to 30° C. for 10 minutes and stopped by adding 0.5 mL ice cold Trichloroacetic acid (Amresco) followed by 100 μL of 1 mg/mL bovine serum albumin (Sigma). The precipitate is collected by vacuum filtrated on glass fiber filters employing a TOMTEC™ and quantified by counting in a beta scintillation counter. This assay is done identical to the protein kinase C (PKC) enzyme assay except that no phospholipids or diacylglycerol are employed in the assay and the histone substrate is specific for the cAMP-dependent catalytic subunit enzyme.

[6] = biological target: T2, casein protein kinase II (Rattus norvegicus, UniProt P19139); experiment: Casein Protein Kinase II Assay (CK-II); assay type: biochemical
T2 construct: isolated from rat brain homogenate; from tissue; host or cells: rat brain homogenate
T2 sequence (P19139 whole entry): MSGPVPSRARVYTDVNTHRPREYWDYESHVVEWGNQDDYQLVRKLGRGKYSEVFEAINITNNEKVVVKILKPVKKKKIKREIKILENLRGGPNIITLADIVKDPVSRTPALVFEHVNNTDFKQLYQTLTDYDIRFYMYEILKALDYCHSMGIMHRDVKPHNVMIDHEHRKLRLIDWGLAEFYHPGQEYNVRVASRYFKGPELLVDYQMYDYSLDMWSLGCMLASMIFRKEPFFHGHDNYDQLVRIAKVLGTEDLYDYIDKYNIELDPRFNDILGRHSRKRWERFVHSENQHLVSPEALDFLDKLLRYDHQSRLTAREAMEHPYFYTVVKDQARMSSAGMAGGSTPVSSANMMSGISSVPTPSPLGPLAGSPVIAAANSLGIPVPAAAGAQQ
T2 sequence (P67874 2-215 partner limits assumed): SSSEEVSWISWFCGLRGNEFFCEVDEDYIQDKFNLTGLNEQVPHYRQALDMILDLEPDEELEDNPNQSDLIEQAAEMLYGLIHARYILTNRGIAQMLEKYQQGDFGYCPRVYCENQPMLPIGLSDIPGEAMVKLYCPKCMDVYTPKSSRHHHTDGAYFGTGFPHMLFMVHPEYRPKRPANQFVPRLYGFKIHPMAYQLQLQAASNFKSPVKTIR
Procedure: Casein Protein Kinase II Assay (CK-II)
The Casein Protein Kinase II Assay is described in Neurochem. […] The assay components are in a total volume of 250 μL: 20 mM Tris-HCl, pH 7.5, 5 mM sodium fluoride, 50 mg/mL Casein (Sigma, St. Louis, Mo.), 10 mM magnesium chloride (Sigma, St. Louis, Mo.), 10 μL DMSO or DMSO/inhibitor and 30 μm (gamma-32P) ATP (DuPont). Initiation of the reaction is performed by addition of casein protein kinase II (isolated from rat brain homogenate), incubated at room temperature for 10 minutes and stopped by the addition of 0.5 mL ice cold Trichloroacetic acid (Amresco) followed by 100 μL of 1 mg/mL bovine serum albumin (Sigma, St. Louis, Mo.). The precipitate is collected by vacuum filtration on glass fiber filters and quantified by counting in a beta scintillation counter.
Assay components in order of addition
10 μL or DMSO or DMSO/inhibitor
25 μL of AT32P in 300 μM magnesium chloride
40 μL of enzyme (undiluted)
Buffer prepared as follows:
(Final volume=3.5 mL: amount of 20 assays)

[7] = biological target: T3, src (Homo sapiens, UniProt P12931); experiment: Protein Tyrosine Kinase Assay (src); assay type: biochemical
T3 construct: purchased Onogene Science, Inc. PK02 and PK03
T3 sequence (P12931 whole entry, species assumed): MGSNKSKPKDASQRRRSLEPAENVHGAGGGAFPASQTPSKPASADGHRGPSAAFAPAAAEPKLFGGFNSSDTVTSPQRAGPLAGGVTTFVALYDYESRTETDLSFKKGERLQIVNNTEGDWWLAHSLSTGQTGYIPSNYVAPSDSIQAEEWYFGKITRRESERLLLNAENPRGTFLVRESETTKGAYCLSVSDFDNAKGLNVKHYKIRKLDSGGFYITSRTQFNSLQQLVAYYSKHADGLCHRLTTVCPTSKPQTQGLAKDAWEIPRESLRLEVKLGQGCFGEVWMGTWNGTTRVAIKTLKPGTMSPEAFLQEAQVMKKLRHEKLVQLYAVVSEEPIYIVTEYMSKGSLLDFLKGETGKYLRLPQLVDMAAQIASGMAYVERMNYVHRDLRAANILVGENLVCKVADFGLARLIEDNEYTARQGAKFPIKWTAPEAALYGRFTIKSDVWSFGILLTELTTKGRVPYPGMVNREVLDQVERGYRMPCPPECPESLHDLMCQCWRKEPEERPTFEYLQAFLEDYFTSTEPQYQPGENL
Procedure: Protein Tyrosine Kinase Assay (src)
The Assay components are the following:
4 μL DMSO or DMSO/inhibitor

| pIC50 [1] | pIC50 [2] | pIC50 [3] | pIC50 [4] | pIC50 [5] | pIC50 [6] | pIC50 [7] | SMILES |
| --- | --- | --- | --- | --- | --- | --- | --- |
| 6.62 | 8.10 | 7.72 | – | – | – | – | O=C1NC(=O)C2=C1c1cn(c3ccccc13)CCC[C@@H](CO)CCn1cc2c2ccccc21 [Example 31r] |
| < 5.30 | 6.74 | 6.82 | – | – | – | – | O=C1NC(=O)C2=C1c1cn(c3ccccc13)CCOCC(CN1CCCC1)CCn1cc2c2ccccc21 (stereo not drawn) [Example 7, 3,4-[(N,N'-1,1'-(2"-ethoxy-(3"'((O)-methylene)-4"'-(N-pyrrolidino)-butane)-bis-(3,3'-indolyl)]-1(H)-pyrrole-2,5-dione hydrochloride salt] |
| 4.72 | 6.30 | 6.22 | 4.03 | < 4.00 | < 4.00 | – | O=C1NC(=O)C2=C1c1cn(c3ccccc13)CCCOC(CN1CCCC1)CCn1cc2c2ccccc21 (stereo not drawn) [Example 12] |
| 5.38 | 7.46 | 7.37 | – | – | – | – | O=C1NC(=O)C2=C1c1cn(c3ccccc13)CCOCC(CO)CCn1cc2c2ccccc21 (stereo not drawn) [Example 6] |
| – | – | – | – | – | – | < 4.00 | O=C1NC(=O)C2=C1c1cn(c3ccccc13)CCOC(CO)CCn1cc2c2ccccc21 (stereo not drawn) [Example 3] |
| 5.60 | 7.49 | 7.43 | – | – | – | – | CN(C)CC1CCn2cc(c3ccccc32)C2=C(C(=O)NC2=O)c2cn(c3ccccc23)CCOC1 (stereo not drawn) [Example 8, 3,4-[(N,N'-1,1'-(2"-ethoxy-(3"'((O)-methylene)-4"'-(N,N-dimethylamino)-butane)-bis-(3,3'-indolyl)]-1(H)-pyrrole-2,5-dione hydrochloride salt] |
| 4.31 | 6.30 | 6.30 | – | – | – | – | O=C1NC(=O)C2=C1c1cn(c3ccccc13)CCC(CO)CCn1cc2c2ccccc21 [Example 51, 3,4-[(N,N'-1,1'-(3"-(hydroxy)methylene)pentan)-bis-(3,3'-indolyl)]-1(H)-pyrrole-2,5-dione] |
| 6.00 | 7.40 | 7.30 | – | – | < 4.00 | – | O=C1NC(=O)C2=C1c1cn(c3ccccc13)CCOCCn1cc2c2ccccc21 [Example 1, 3,4-[(N,N'-1,1'-ethoxyethyl)-bis-(3,3'-indolyl)]-1H-pyrrole-2,5-dione] |
| 5.66 | 7.59 | 7.31 | – | – | – | – | O=C1NC(=O)C2=C1c1cn(c3ccccc13)CCOc1ccccc1Cn1cc2c2ccccc21 [Example 27, 3,4-[(N,N'-1,1'-(2"-ethoxy)-benzyl)-bis-(3,3'-indolyl)]-1(H) -pyrrole-2,5-dione hydrochloride] |
| 6.00 | 7.10 | 7.15 | 5.70 | – | < 4.00 | < 4.00 | O=C1NC(=O)C2=C1c1cn(c3ccccc13)CCCCCCn1cc2c2ccccc21 [Example 28, 3,4-[(N,N'-1,1'-hexane)-bis-(3,3'-indolyl)]-1H-pyrrole-2,5-dione] |
| – | – | – | 5.10 | < 4.00 | < 4.00 | – | CN(C)C[C@@H]1CCn2cc(c3ccccc32)C2=C(C(=O)NC2=O)c2cn(c3ccccc23)CCO1 [Example 5s] |
| < 5.30 | 6.08 | 5.54 | – | – | – | – | O=C1NC(=O)C2=C1c1cn(c3ccccc13)CCCOC(CNS(=O)(=O)c1ccccc1)CCn1cc2c2ccccc21 (stereo not drawn) [Example 15] |
| 6.40 | 7.40 | 7.30 | 6.22 | – | – | 4.21 | NCC1CCCn2cc(c3ccccc32)C2=C(C(=O)NC2=O)c2cn(c3ccccc23)CC1 (stereo not drawn) [Example 33, 3,4-[(N,N'-1,1'-(3"-aminomethylene)-hexane)-bis-(3,3'-indolyl)]-1H-pyrrole-2,5-dione] |
| 4.03 | 6.92 | 7.37 | 4.66 | < 4.00 | < 4.00 | – | O=C(NC[C@H]1CCn2cc(c3ccccc32)C2=C(C(=O)NC2=O)c2cn(c3ccccc23)CCO1)OCc1ccccc1 [Example 25r] |
| 5.47 | 7.06 | 7.08 | 5.06 | < 4.00 | < 4.00 | – | O=C1NC(=O)C2=C1c1cn(c3ccccc13)CCO[C@@H](CNCc1ccccc1)CCn1cc2c2ccccc21 [Example 18r] |
| < 4.00 | 5.70 | 5.70 | – | – | – | – | O=C1NC(=O)C2=C1c1cn(c3ccccc13)CCCCCCCCn1cc2c2ccccc21 [Example 44] |
| 5.74 | 6.62 | 6.52 | – | – | – | – | CN1CCN(C[C@@H]2CCn3cc(c4ccccc43)C3=C(C(=O)NC3=O)c3cn(c4ccccc34)CCO2)CC1 [Example 23s] |
| 5.19 | 6.52 | 6.42 | – | < 4.00 | < 4.00 | – | O=C1NC(=O)C2=C1c1cn(c3ccccc13)CCO[C@H](CNCc1ccccc1)CCn1cc2c2ccccc21 [Example 18s] |
| 6.52 | – | – | 5.52 | – | < 4.00 | 4.04 | O=C1NC(=O)C2=C1c1cn(c3ccccc13)CCCC(Cn1ccnc1)CCn1cc2c2ccccc21 (stereo not drawn) [Example 41, 3,4-[(N,N'-1,1'-(3"-(N-imidazole)methylene)-hexane)-bis-(3,3'-indolyl)]-1H-pyrrole-2,5-dione] |
| 5.46 | 6.42 | 6.31 | – | – | – | – | O=C1NC(=O)C2=C1c1cn(c3ccccc13)CCO[C@H](CN1CCOCC1)CCn1cc2c2ccccc21 [Example 24s] |
| – | – | – | 5.30 | < 4.00 | < 4.00 | – | CN(C)C[C@H]1CCn2cc(c3ccccc32)C2=C(C(=O)NC2=O)c2cn(c3ccccc23)CCO1 [Example 5r] |
| 6.80 | 8.40 | 8.30 | – | – | – | – | CN(C)CC1CCn2cc(c3ccccc32)C2=C(C(=O)NC2=O)c2cn(c3ccccc23)CC1 [Example 54, 3,4-[(N,N'-1,1'-(3"-(N,N-(dimethylamino)methylene)pentanyl)-bis-(3,3'-indolyl)]-1(H)-pyrrole-2,5-dione hydrochloride] |
| – | 6.42 | 6.39 | – | – | – | – | O=C1NC(=O)C2=C1c1cn(c3ccccc13)CCCOC(CNCc1ccccc1)CCn1cc2c2ccccc21 (stereo not drawn) [Example 55] |
| – | 7.36 | 6.77 | – | – | – | – | O=C1NC(=O)C2=C1c1cn(c3ccccc13)CCO[C@H](CNS(=O)(=O)c1ccccc1)CCn1cc2c2ccccc21 [Example 21s] |
| < 5.30 | 6.03 | 5.72 | – | – | – | – | O=C1NC(=O)C2=C1c1cn(c3ccccc13)CCCOC(CNCc1ccccc1)CCn1cc2c2ccccc21 (stereo not drawn) [Example 13] |
| < 5.30 | 5.64 | 5.49 | – | – | – | – | O=C(NCC1CCn2cc(c3ccccc32)C2=C(C(=O)NC2=O)c2cn(c3ccccc23)CCCO1)OCc1ccccc1 (stereo not drawn) [Example 16] |
| < 4.00 | 6.10 | 6.15 | – | – | – | – | O=C(OCc1ccccc1)OCC1CCCn2cc(c3ccccc32)C2=C(C(=O)NC2=O)c2cn(c3ccccc23)CC1 (stereo not drawn) [Example 29, 3,4-[(N,N'-1,1'-(3"-(benzylcarbonate)methylene)hexane)-bis-(3,3'-indolyl)]-1H-pyrrole-2,5-dione] |
| 6.40 | – | – | 4.39 | < 4.00 | < 4.00 | – | CN(C)C[C@H]1CCCn2cc(c3ccccc32)C2=C(C(=O)NC2=O)c2cn(c3ccccc23)CC1 [Example 40s, (S)-3,4-[(N,N'-1,1'-(3"-(N,N-dimethylamine)methylene)-hexane)-bis-(3,3'-indolyl)]-1H-pyrrole-2,5-dione hydrochloride salt] |
